Results as given in US20250188030A1, “Biphenyl and Phenylpyridine Compounds” (Pfizer Inc., priority 2023, published 2025).
Read-outs that look alike come from different tables or passages of the source.

How the values were obtained:
KAT2A = KAT2A (Homo sapiens (Human), UniProt Q92830); experiment: KAT2A acetyltransferase biochemical assay (RapidFire mass spectrometry, AcCoA to CoA)
Protocol: • A) Compound preparation • 1) Prepare 10 mM stock solutions in 100% DMSO from solid material. • 2) Serial dilute 10 mM, 1 mM, 0.1 or 0.01 mM compound stocks 3-fold in 100% DMSO for 11-point dose response. • B) Reagent preparation • 1) Prepare 1×assay buffer containing 40 mM bis tris propane pH 8.0, 10 mM NaCl, 0.5 mM EDTA, and 0.002% Tween-20. • 2) Dilute Histone peptide (CPC Scientific) and KAT enzyme together in assay buffer to 1.25×. • 3) Dilute AcCoA (Sigma) in assay buffer to 5×. • C) Enzyme reaction • 1) Final reaction conditions for each KAT assay in a 100ul assay reaction volume: • i) KAT2A 0.5 nM, 1 uM AcCoA, 5 uM H3 1-21 peptide, 90-minute reaction • ii) KAT2B 0.5 nM, 1 uM AcCoA, 5 uM H3 1-21 peptide, 90-minute reaction • 2) Add 2 ul of diluted compound series to the assay plate (96-well round-bottom polypropylene plates) or 2 ul of DMSO for control wells. • 3) Add 11 μL of 10% formic acid to 100% effect (HPE) control wells. • 4) Add 80 ul of 1.25× Histone peptide/KAT mix to the assay plate via Multidrop Combi (ThermoFisher). Incubate 15 min at room temperature. • 5) Add 20 ul of 5× AcCoA to the assay plate via Multidrop Combi. • 6) Stop the reaction after the indicated time with the addition of 11 ul of 10% formic acid via Multidrop Combi. • 7) Each reaction was analyzed using Rapid Fire mass spectrometry platform.
KAT enzymes were expressed using a baculovirus expression system and purified at Pfizer, La Jolla. […] Acetyl coenzyme A was purchased from Sigma-Aldrich (St. Louis, MO). All other biochemical reagents were purchased from Sigma-Aldrich or ThermoFisher Scientific (Waltham, MA).
KAT assays were performed at room temperature in assay buffer containing 1 μM AcCoA, 5 μM histone peptide, 40 mM bis tris propane pH 8.0, 10 mM NaCl, 0.5 mM EDTA 0.002% Tween-20. 80 ul of 1.25× Histone peptide/enzyme mix was added to a 96-well round-bottom polypropylene assay plate containing 2 ul of serially diluted test compound in 100% dimethyl sulfoxide (DMSO). To start the reaction, 20 ul of 5× AcCoA solution was added to the assay plate. KAT assays were terminated after 90 minutes with the addition of 11 ul of 10% formic acid. All assays used histone H3 (1-21) peptide. The final enzyme concentration for each KAT was as follows: KAT2A, 0.5 nM; KAT2B, 0.5 nM. […] Each reaction was analyzed using Rapid Fire mass spectrometry platform. This methodology leverages an Agilent 6495 triple quadrupole (QQQ) mass spectrometer coupled to a RapidFire model 365 to specifically capture and measure KAT2 acetyltransferase activity, converting AcCoA (substrate) to CoA (product).
Area under the curve (AUC) for both substrate and product peaks was determined for KAT2 at M.W. 809.6 [Substrate+H]+ and 767.3 [Product+H]+ with a +/−1 Da tolerance, respectively. Acetyltransferase activity (% of DMSO control) was calculated by: ((AUCProduct/AUCsubstrate)-AUCHPE)/(AUCZPE-AUCHPE))*100. Ki values were determined by fitting the % acetyltransferase activity at each inhibitor concentration to the Morrison equation for tightbinding competitive inhibitors using Pfizer proprietary curve fitting software.
To determine the inhibition of KAT enzymatic activity by test compounds, assay reactions were conducted in a volume of 100 μL in 96-well round-bottom polypropylene assay plate. The reactions were performed in assay buffer (40 mM bis tris propane, pH 8, 10 mM NaCl, 0.5 mM EDTA, 0.002% Tween-20).

H3K9AC (HT1080 cells) = experiment: H3K9AC Sandwich ELISA Assay in HT1080 cells (KAT2A primary cell-based screening assay); parameters: species or system Human
In short: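 HT1080 fibrosarcoma cells seeded 16 h, then treated 24 h at 37 °C with 10-point 1:3 compound dilutions (top 10 µM final, 0.1% DMSO). Acid lysates neutralized with butyrate/PMSF; H3K9ac measured by total-H3-capture sandwich ELISA with luminescent HRP readout, IC50 by four-parameter fit.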

[1] = read-out: KAT2A Ki at 1 μM AcCoA, 5 μM H3 1-21 peptide, 0.5 nM KAT2A, 90-minute reaction
[2] = Homo sapiens, HT-1080, H3K9AC sandwich ELISA

Chain of KAT2A (Q92830 whole entry): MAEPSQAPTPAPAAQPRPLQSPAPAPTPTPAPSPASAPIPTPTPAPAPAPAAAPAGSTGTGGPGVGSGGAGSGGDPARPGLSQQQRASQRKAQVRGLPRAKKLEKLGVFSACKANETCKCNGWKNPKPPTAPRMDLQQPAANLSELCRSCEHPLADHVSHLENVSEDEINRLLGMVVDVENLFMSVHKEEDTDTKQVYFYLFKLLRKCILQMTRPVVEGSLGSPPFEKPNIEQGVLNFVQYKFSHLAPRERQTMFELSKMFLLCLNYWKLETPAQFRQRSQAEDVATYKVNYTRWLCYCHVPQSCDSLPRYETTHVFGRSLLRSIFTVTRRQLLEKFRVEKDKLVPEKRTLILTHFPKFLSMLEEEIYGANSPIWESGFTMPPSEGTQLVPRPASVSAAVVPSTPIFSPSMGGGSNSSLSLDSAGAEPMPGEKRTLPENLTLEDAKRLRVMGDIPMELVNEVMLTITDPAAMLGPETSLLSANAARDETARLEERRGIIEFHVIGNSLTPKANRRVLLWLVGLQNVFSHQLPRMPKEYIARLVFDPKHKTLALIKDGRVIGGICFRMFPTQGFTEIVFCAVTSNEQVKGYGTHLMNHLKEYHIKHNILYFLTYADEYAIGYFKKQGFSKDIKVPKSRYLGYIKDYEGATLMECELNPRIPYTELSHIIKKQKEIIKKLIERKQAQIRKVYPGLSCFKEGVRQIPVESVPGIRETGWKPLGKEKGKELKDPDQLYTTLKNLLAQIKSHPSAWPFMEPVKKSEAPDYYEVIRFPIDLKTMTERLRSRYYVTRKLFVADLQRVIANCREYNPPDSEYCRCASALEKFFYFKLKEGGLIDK

SMILES | Ki (KAT2A; KAT2A Ki at 1 μM AcCoA, 5 μM H3 1-21 peptide, 0.5 nM KAT2A, 90-minute reaction) [nM] | IC50 (H3K9AC (HT1080 cells); H3K9AC sandwich ELISA) [nM] | Ki (KAT2A; [1]) [nM] | IC50 (H3K9AC (HT1080 cells); [2]) [nM]
C[C@@H](C(=O)O)c1nn(C)cc1-c1ccc(O[C@@H]2CC[C@@H](NC(=O)[C@]3(F)CNC4(CCC4)C3)C2)c(-c2cccc(F)c2C2CCC2)c1 (single isomer, unassigned) [Example J2] | 61.6 | 790 |  | 
Cn1cc(-c2ccc(O[C@@H]3CC[C@@H](NC(=O)[C@]4(F)CNC5(CCC5)C4)C3)c(-c3cccc(F)c3C3CCC3)c2)c(C(C)(C)C(=O)O)n1 (single isomer, unassigned) [Example J6] |  | 746 | > 1000 | 
Cn1cc(-c2ccc(O[C@@H]3CC[C@@H](NC(=O)[C@]4(F)CNC5(CCC5)C4)C3)c(-c3cccc(F)c3C3CCC3)c2)c(C(=O)O)n1 (single isomer, unassigned) [Example J9] |  | 4300 | 2.16 | 
O=C(O)c1nn(C2CC2)cc1-c1ccc(O[C@@H]2CC[C@@H](NC(=O)[C@@]3(F)CNC4(CCC4)C3)C2)c(-c2cccc(F)c2C2CCC2)c1 (single isomer, unassigned) [Example J11] |  | 8.85 | 0.08 | 
O=C(O)c1nn(C2CC2)cc1-c1ccc(O[C@@H]2CC[C@@H](NC(=O)[C@@]3(F)CNC4(CCC4)C3)C2)c(-c2cccc(F)c2C2CCC2)c1 (single isomer, unassigned) [Example J12] |  | > 1000 | 25.8 | 
CC(C)n1cc(-c2ccc(O[C@@H]3CC[C@@H](NC(=O)[C@@]4(F)CNC5(CCC5)C4)C3)c(-c3cccc(F)c3C3CCC3)c2)c(C(=O)O)n1 (single isomer, unassigned) [Example J15] |  | 451 | 27.3 | 
CN1CC(C)(C)C[C@H]1C(=O)N[C@H]1C[C@H](Oc2ccc(C(=O)O)cc2-c2ccccc2C2CCC2)C[C@H]1O (single isomer, unassigned) [Example K2, 2′-cyclobutyl-6-({(1ξ,3ξ,4ξ)-3-hydroxy-4-[(1,4,4-trimethyl-L-prolyl)amino]cyclopentyl}oxy)[1,1′-biphenyl]-3-carboxylic acid] |  |  | 1.21 | 28.6
O=C(O)c1ccc(O[C@@H]2CC[C@@H](NC(=O)[C@@]3(F)CNC4(CCC4)C3)C2)c(-c2cccc(F)c2C2CCC2)c1 [Example A29, 2′-cyclobutyl-3′-fluoro-6-{[(1R,3R)-3-{[(7S)-7-fluoro-5-azaspiro[3.4]octane-7-carbonyl]amino}cyclopentyl]oxy}[1,1′-biphenyl]-3-carboxylic acid] |  |  | 0.11 | > 1000
CCc1c(F)cccc1-c1cc(C(C)(C)C(=O)NS(=O)(=O)CC)ccc1O[C@@H]1CC[C@@H](NC(=O)[C@@]2(F)CNC3(CCC3)C2)C1 [Example C17, (7S)-N-[(1R,3R)-3-({5-[1-(ethanesulfonamido)-2-methyl-1-oxopropan-2-yl]-2′-ethyl-3′-fluoro[1,1′-biphenyl]-2-yl}oxy)cyclopentyl]-7-fluoro-5-azaspiro[3.4]octane-7-carboxamide] |  |  | 2750 | > 1000
CCc1c(F)cccc1-c1cc(C(C)(C)C(=O)NS(=O)(=O)C2(C)CC2)ccc1O[C@@H]1CC[C@@H](NC(=O)[C@@]2(F)CNC3(CCC3)C2)C1 [Example C23, (7S)-N-[(1R,3R)-3-({2′-ethyl-3′-fluoro-5-[2-methyl-1-(1-methylcyclopropane-1-sulfonamido)-1-oxopropan-2-yl][1,1′-biphenyl]-2-yl}oxy)cyclopentyl]-7-fluoro-5-azaspiro[3.4]octane-7-carboxamide] |  |  | 6.57 | 91.8
CCc1ccccc1-c1cc(CC(=O)NS(=O)(=O)C(C)C)ccc1O[C@@H]1CC[C@@H](NC(=O)[C@@]2(F)CNC3(CCC3)C2)C1 [Example C52, (7S)-N-[(1R,3R)-3-({2′-ethyl-5-[2-oxo-2-(propane-2-sulfonamido)ethyl][1,1′-biphenyl]-2-yl}oxy)cyclopentyl]-7-fluoro-5-azaspiro[3.4]octane-7-carboxamide] |  |  | 0.48 | 8.5
CCS(=O)(=O)NC(=O)Cc1ccc(O[C@@H]2CC[C@@H](NC(=O)[C@@]3(F)CNC4(CCC4)C3)C2)c(-c2ccccc2C(C)C)c1 [Example C53, (7S)-N-[(1R,3R)-3-({5-[2-(ethanesulfonamido)-2-oxoethyl]-2′-(propan-2-yl)[1,1′-biphenyl]-2-yl}oxy)cyclopentyl]-7-fluoro-5-azaspiro[3.4]octane-7-carboxamide] |  |  | 0.1 | 7
CN1CC(C)(C)C[C@H]1C(=O)N[C@@H]1CC[C@@H](Oc2ccc(C(=O)O)cc2-c2ccccc2C2CCC2)C1 [Example D4, 2′-cyclobutyl-6-({(1R,3R)-3-[(1,4,4-trimethyl-L-prolyl)amino]cyclopentyl}oxy)[1,1′-biphenyl]-3-carboxylic acid] |  |  | 25.1 | 88
CN1CC(C)(C)C[C@H]1C(=O)N[C@@H]1CC[C@@H](Oc2ccc(C(=O)O)cc2-c2cccc(F)c2C2CCC2)C1 [Example D6, 2′-cyclobutyl-3′-fluoro-6-({(1R,3R)-3-[(1,4,4-trimethyl-L-prolyl)amino]cyclopentyl}oxy)[1,1′-biphenyl]-3-carboxylic acid] |  |  | 1.08 | 19
CC(C)c1c(F)cccc1-c1cc(C(=O)O)ccc1O[C@@H]1CC[C@@H](NC(=O)[C@@H]2CC(C)(C)CN2C)C1 [Example D7, 3′-fluoro-2′-(propan-2-yl)-6-({(1R,3R)-3-[(1,4,4-trimethyl-L-prolyl)amino]cyclopentyl}oxy)[1,1′-biphenyl]-3-carboxylic acid] |  |  | 3.57 | 45.1
CC(C)c1c(F)cccc1-c1cc(CC(=O)O)ccc1O[C@@H]1CC[C@@H](NC(=O)[C@@H]2CC(C)(C)CN2C)C1 [Example D12, [3′-fluoro-2′-(propan-2-yl)-6-({(1R,3R)-3-[(1,4,4-trimethyl-L-prolyl)amino]cyclopentyl}oxy)[1,1′-biphenyl]-3-yl]acetic acid] |  |  | 12.4 | 66.6
[2H]C([2H])([2H])N1CC(C)(C)C[C@H]1C(=O)N[C@@H]1CC[C@@H](Oc2ccc(C(C)(C)C(=O)O)cc2-c2cccc(F)c2C2CCC2)C1 [Example D15, 2-(2′-cyclobutyl-6-{[(1R,3R)-3-{[4,4-dimethyl-1-(^2H3)methyl-L-prolyl]amino}cyclopentyl]oxy}-3′-fluoro[1,1′-biphenyl]-3-yl)-2-methylpropanoic acid] |  |  | 8.87 | 83.5
CN1CC(C)(C)C[C@H]1C(=O)N[C@@H]1CC[C@@H](Oc2ccc(C(C)(C)c3noc(=O)[nH]3)cc2-c2cccc(F)c2C2CCC2)C1 [Example D17, N-[(1R,3R)-3-({2′-cyclobutyl-3′-fluoro-5-[2-(5-oxo-4,5-dihydro-1,2,4-oxadiazol-3-yl)propan-2-yl][1,1′-biphenyl]-2-yl}oxy)cyclopentyl]-1,4,4-trimethyl-L-prolinamide] |  |  | 2.64 | 14.4
CN1CC(C)(C)CC1C(=O)N[C@H]1C[C@H](COc2ccc(CC(=O)NS(C)(=O)=O)cc2-c2cccc(F)c2C2CCC2)C1 (stereo partly drawn) [Example G1, N-[(1r,3S)-3-{[(2′-cyclobutyl-3′-fluoro-5-{2-[(methanesulfonyl)amino]-2-oxoethyl}[1,1′-biphenyl]-2-yl)oxy]methyl}cyclobutyl]-1,4,4-trimethyl-L-prolinamide] |  |  | 2.55 | 55.2
